Measured values: patent US20150018317A1, “BIOCIDAL COMPOSITION” (Dow Global Technologies LLC, priority 2010, published 2015)

Test system: bacteria isolated from a industrial cooling water sample
Assay: Time-kill test in cooling water samples (MPN serial dilution)
Assay type: cell-based
Details: 37° C., start about 5×10^7 CFU/ml
Procedure: In this example, tributyl tetradecyl phosphonium chloride (TTPC), tetrakis(hydroxymethyl)phosphonium sulfate (THPS), and combinations of TTPC and THPS are tested at different concentrations for efficacy against bacteria isolated from a industrial cooling water sample. Water samples containing a final bacterial concentration of about 5×10^7 CFU/ml are used. Biocide solutions are prepared and diluted in sterile deionized water and used within 2 hours.
Time-kill tests are carried out to determine the threshold concentrations required for biocide activity in the cooling water samples. Tests are conducted in a 96-deep well block format using a total sample volume of 600 μl for all evaluations. In these samples, no more than 10% of the total volume consists of the biocide and organism solution and all non-matrix additions are normalized for all samples. Each experimental 96-well block contains biocide-treated samples and control samples which lack biocide. The biocides are added to the bacterial suspension at various concentrations and mixed well. The mixture samples are then incubated at 37° C. At several time intervals starting from 1 hour, viable bacteria left in the mixture are determined using the MPN method of serial dilution.
Synergy Index (SI) is calculated as shown below. An SI value of less than 1 indicates synergy.
Ca: Concentration of biocide A required to achieve bacterial concentrations of 2×10^3 CFU/ml or less when used in combination
CA: Concentration of biocide A required to achieve bacterial concentrations of 2×10^3 CFU/ml or less when used alone
Cb: Concentration of biocide B required to achieve bacterial concentrations of 2×10^3 CFU/ml or less when used in combination
CB: Concentration of biocide B required to achieve bacterial concentrations of 2×10^3 CFU/ml or less when used alone

Row | Compound | Concentration of active needed to achieve bacterial concentrations of 2×10^3 CFU/ml or less, biocide used alone (4 hr) [ppm] | Concentration of active needed to achieve bacterial concentrations of 2×10^3 CFU/ml or less, biocide used alone (24 hr) [ppm] | Concentration of active needed to achieve bacterial concentrations of 2×10^3 CFU/ml or less, biocide used alone (48 hr) [ppm] | Concentration of active needed to achieve bacterial concentrations of 2×10^3 CFU/ml or less, biocide used alone (3 day) [ppm] | Concentration of active needed to achieve bacterial concentrations of 2×10^3 CFU/ml or less, biocide used alone (5 day) [ppm] | Concentration of active needed to achieve bacterial concentrations of 2×10^3 CFU/ml or less, biocide used alone (7 day) [ppm]
1 | CCCCCCCCCCCCCC[P+](CCCC)(CCCC)CCCC.[Cl-] [TTPC, tributyl tetradecyl phosphonium chloride] | 30 | 40 | 40 | 40 | 40 | 40
2 | tetrakis(hydroxymethyl)phosphonium sulfate [THPS] | 100 | 75 | 75 | 75 | 75 | 75
